Results as given in ChEMBL document CHEMBL3045961, “Synthesis and evaluation of some pyrimidine analogs against toxoplasmosis” (Med Chem Res, 2008).
Calls of active or inactive are those of the source. The rule behind the calls is not given here.

How the values were obtained:
Dihydrofolate reductase = biological target: T1, Dihydrofolate reductase (Homo sapiens, UniProt P00374); assay: Inhibition of Homo sapiens (human) dihydrofolate reductase using dihydrofolate as substrate incubated for 5 min prior to substrate addition by spectrophotometric assay
T1 sequence (P00374 whole entry): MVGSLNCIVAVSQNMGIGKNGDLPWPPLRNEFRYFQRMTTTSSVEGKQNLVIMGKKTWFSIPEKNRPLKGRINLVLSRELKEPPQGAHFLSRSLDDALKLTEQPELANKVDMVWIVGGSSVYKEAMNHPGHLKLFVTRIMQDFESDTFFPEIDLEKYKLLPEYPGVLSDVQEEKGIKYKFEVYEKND

[1] = biological target: T2, Bifunctional dihydrofolate reductase-thymidylate synthase (Cryptosporidium parvum, UniProt Q27552); assay: Inhibition of Cryptosporidium parvum recombinant DHFR using dihydrofolate as substrate incubated for 5 min prior to substrate addition by spectrophotometric assay
T2 sequence (Q27552 whole entry): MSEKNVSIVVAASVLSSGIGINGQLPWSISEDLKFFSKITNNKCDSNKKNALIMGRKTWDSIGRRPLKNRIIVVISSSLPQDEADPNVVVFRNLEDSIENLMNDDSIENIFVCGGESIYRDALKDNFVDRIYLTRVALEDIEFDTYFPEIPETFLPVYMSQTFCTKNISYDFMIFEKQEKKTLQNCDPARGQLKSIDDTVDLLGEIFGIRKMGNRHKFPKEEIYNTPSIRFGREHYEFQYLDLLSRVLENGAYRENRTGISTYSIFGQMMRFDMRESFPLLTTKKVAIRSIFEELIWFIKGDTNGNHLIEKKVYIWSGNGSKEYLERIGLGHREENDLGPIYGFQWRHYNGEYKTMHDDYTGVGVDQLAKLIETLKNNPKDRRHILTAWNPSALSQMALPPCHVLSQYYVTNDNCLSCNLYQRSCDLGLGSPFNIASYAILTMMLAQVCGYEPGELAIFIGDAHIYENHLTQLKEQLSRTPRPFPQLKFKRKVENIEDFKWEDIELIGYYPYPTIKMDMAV

Toxoplasma gondii [2] = assay: Antiparasitic activity Toxoplasma gondii RH infected Swiss albino mouse assessed as decrease in interstitial pneumonia at 0.25 mg, po administered 48 hr post-infection measured after 3 days by haematoxylin and eosin staining relative to control; type: functional, organism-based
Toxoplasma gondii [3] = assay: Antiparasitic activity Toxoplasma gondii RH infected Swiss albino mouse assessed as decrease in host lung congestion at 0.25 mg, po administered 48 hr post-infection measured after 3 days by haematoxylin and eosin staining relative to control; type: functional, organism-based
Toxoplasma gondii [4] = assay: Antiparasitic activity Toxoplasma gondii RH infected Swiss albino mouse assessed as megakaryocytes in host spleen at 0.25 mg, po administered 48 hr post-infection measured after 3 days by haematoxylin and eosin staining relative to control; type: functional, organism-based
Toxoplasma gondii [5] = assay: Antiparasitic activity Toxoplasma gondii RH infected Swiss albino mouse assessed as extramedullary hematopoiesis in host spleen at 0.25 mg, po administered 48 hr post-infection measured after 3 days by haematoxylin and eosin staining relative to control; type: functional, organism-based
Toxoplasma gondii [6] = assay: Antiparasitic activity Toxoplasma gondii RH infected Swiss albino mouse assessed as epethelioid granuloma in host spleen at 0.25 mg, po administered 48 hr post-infection measured after 3 days by haematoxylin and eosin staining relative to control; type: functional, organism-based
Toxoplasma gondii [7] = assay: Antiparasitic activity Toxoplasma gondii RH infected Swiss albino mouse assessed as increase in host spleen red pulp at 0.25 mg, po administered 48 hr post-infection measured after 3 days by haematoxylin and eosin staining relative to control; type: functional, organism-based
Toxoplasma gondii [8] = assay: Antiparasitic activity Toxoplasma gondii RH infected Swiss albino mouse assessed as decrease in host spleen white pulp at 0.25 mg, po administered 48 hr post-infection measured after 3 days by haematoxylin and eosin staining relative to control; type: functional, organism-based
Toxoplasma gondii [9] = assay: Antiparasitic activity Toxoplasma gondii RH infected Swiss albino mouse assessed as decrease in host spleen necrosis at 0.25 mg, po administered 48 hr post-infection measured after 3 days by haematoxylin and eosin staining relative to control; type: functional, organism-based
Toxoplasma gondii [10] = assay: Antiparasitic activity Toxoplasma gondii RH infected Swiss albino mouse assessed as clear lymphocytes in host liver focal granuloma at 0.25 mg, po administered 48 hr post-infection measured after 3 days by haematoxylin and eosin staining relative to control; type: functional, organism-based
Toxoplasma gondii [11] = assay: Antiparasitic activity Toxoplasma gondii RH infected Swiss albino mouse assessed as clear mononuclear cells in host liver focal granuloma at 0.25 mg, po administered 48 hr post-infection measured after 3 days by haematoxylin and eosin staining relative to control; type: functional, organism-based
Toxoplasma gondii [12] = assay: Antiparasitic activity Toxoplasma gondii RH infected Swiss albino mouse assessed as decrease in host liver necrosis at 0.25 mg, po administered 48 hr post-infection measured after 3 days by haematoxylin and eosin staining relative to control; type: functional, organism-based
Toxoplasma gondii [13] = assay: Antiparasitic activity Toxoplasma gondii RH infected Swiss albino mouse assessed as parasite deformity in host peritoneal exudate at 0.25 mg, po administered 48 hr post-infection measured after 3 days by light microscopic analysis; type: functional, organism-based
Toxoplasma gondii [14] = assay: Antiparasitic activity Toxoplasma gondii RH infected Swiss albino mouse assessed as decreased parasite movement in host peritoneal exudate at 0.25 mg, po administered 48 hr post-infection measured after 3 days by light microscopic analysis; type: functional, organism-based
Toxoplasma gondii [15] = assay: Antiparasitic activity Toxoplasma gondii RH infected Swiss albino mouse assessed as decrease in Toxoplasma antigen in host serum at 0.25 mg, po administered 48 hr post-infection measured after 3 days by Co-A test relative to control; type: functional, organism-based
Toxoplasma gondii [16] = assay: Antiparasitic activity against Toxoplasma gondii RH infected Swiss albino mouse assessed as decrease in tachozyte count in spleen at 0.25 mg, po administered 48 hr post-infection measured after 3 days by Geimsa staining relative to control; type: functional, organism-based
Toxoplasma gondii [17] = assay: Antiparasitic activity against Toxoplasma gondii RH infected Swiss albino mouse assessed as decrease in tachozyte count in liver at 0.25 mg, po administered 48 hr post-infection measured after 3 days by Geimsa staining relative to control; type: functional, organism-based
[18] = biological target: T3, Bifunctional dihydrofolate reductase-thymidylate synthase (Cryptosporidium parvum) (UniProt Q27552); assay: Ratio of trimethorpin IC50 to compound IC50 for Cryptosporidium parvum recombinant DHFR
T3 sequence (whole entry): T2 sequence (Q27552 whole entry)

Toxoplasma gondii [19] = assay: Antiparasitic activity Toxoplasma gondii RH infected Swiss albino mouse assessed as decrease in tachyzoites end tapering in host peritoneal exudate at 0.25 mg, po administered 48 hr post-infection measured after 3 days by scanning electron microscopic analysis; type: functional, organism-based
Toxoplasma gondii [20] = assay: Antiparasitic activity Toxoplasma gondii RH infected Swiss albino mouse assessed as elongated tachyzoites in host peritoneal exudate at 0.25 mg, po administered 48 hr post-infection measured after 3 days by scanning electron microscopic analysis; type: functional, organism-based
Toxoplasma gondii [21] = assay: Antiparasitic activity Toxoplasma gondii RH infected Swiss albino mouse assessed as disorganised parasite conoid in host peritoneal exudate at 0.25 mg, po administered 48 hr post-infection measured after 3 days by scanning electron microscopic analysis; type: functional, organism-based
Toxoplasma gondii [22] = assay: Antiparasitic activity Toxoplasma gondii RH infected Swiss albino mouse assessed as loss of parasite crescent shape in host peritoneal exudate at 0.25 mg, po administered 48 hr post-infection measured after 3 days by scanning electron microscopic analysis; type: functional, organism-based
Toxoplasma gondii [23] = assay: Antiparasitic activity Toxoplasma gondii RH infected Swiss albino mouse assessed as multiple deep ridged parasite surface in host peritoneal exudate at 0.25 mg, po administered 48 hr post-infection measured after 3 days by scanning electron microscopic analysis; type: functional, organism-based

SMILES | IC50 (Dihydrofolate reductase) [µM] | IC50 [1] [µM] | Activity (Toxoplasma gondii [2]) | Activity (Toxoplasma gondii [3]) | Activity (Toxoplasma gondii [4]) | Activity (Toxoplasma gondii [5]) | Activity (Toxoplasma gondii [6]) | Activity (Toxoplasma gondii [7]) | Activity (Toxoplasma gondii [8]) | Activity (Toxoplasma gondii [9]) | Activity (Toxoplasma gondii [10]) | Activity (Toxoplasma gondii [11]) | Activity (Toxoplasma gondii [12]) | Activity (Toxoplasma gondii [13]) | Activity (Toxoplasma gondii [14]) | Activity (Toxoplasma gondii [15]) | Activity (Toxoplasma gondii [16]) | Activity (Toxoplasma gondii [17]) | other results
CCOC(=O)C1=C(C)NC(=S)NC1c1ccccc1OC (stereo not given) | 1.9 | 2.4 | inactive | inactive | inactive | inactive | inactive | inactive | inactive | inactive | inactive | inactive | inactive | inactive | inactive | inactive | inactive | inactive | –
CCOC(=O)C1=C(C)NC(S/C(=C\c2ccc(OC)cc2)C(=O)OCC)=NC1c1ccccc1 (stereo not given) | 0.01 | 0.038 | Active | inactive | Active | Active | inactive | Active | Active | Active | Active | Active | Active | Active | Active | Active | Active | Active | Ratio IC50 [18]: 40; Activity (Toxoplasma gondii [23]): Active
COc1cc(Cc2cnc(N)nc2N)cc(OC)c1OC [TRIMETHOPRIM] | – | 4 | – | – | – | – | – | – | – | – | – | – | – | – | – | – | – | – | –
CC(=O)C1=C(C)NC(=S)NC1c1cccc(O)c1 (stereo not given) | 9.4 | 7.6 | inactive | inactive | inactive | inactive | inactive | inactive | inactive | inactive | inactive | inactive | inactive | inactive | inactive | inactive | inactive | inactive | –
CCOC(=O)C1=C(C)N=C(SCC(=O)c2ccc(Cl)c([N+](=O)[O-])c2)NC1c1ccccc1 (stereo not given) | 3 | 2.3 | inactive | inactive | inactive | inactive | inactive | inactive | inactive | inactive | inactive | inactive | inactive | inactive | inactive | inactive | inactive | inactive | –

Second part, led by results:

IC50 (Dihydrofolate reductase) [µM] | IC50 [1] [µM] | SMILES | Activity (Toxoplasma gondii [2]) | Activity (Toxoplasma gondii [3]) | Activity (Toxoplasma gondii [4]) | Activity (Toxoplasma gondii [5]) | Activity (Toxoplasma gondii [6]) | Activity (Toxoplasma gondii [7]) | Activity (Toxoplasma gondii [8]) | Activity (Toxoplasma gondii [9]) | Activity (Toxoplasma gondii [10]) | Activity (Toxoplasma gondii [11]) | Activity (Toxoplasma gondii [12]) | Activity (Toxoplasma gondii [13]) | Activity (Toxoplasma gondii [14]) | Activity (Toxoplasma gondii [15]) | Activity (Toxoplasma gondii [16]) | Activity (Toxoplasma gondii [17]) | other results
0.58 | 4.7 | CCOC(=O)C1=C(C)NC(=S)NC1c1ccccc1 (stereo not given) | inactive | inactive | inactive | inactive | inactive | inactive | inactive | inactive | inactive | inactive | inactive | inactive | inactive | inactive | inactive | inactive | –
7.3 | 5.1 | CCOC(=O)CSC1=NC(c2ccccc2OC)C(C(=O)OCC)=C(C)N1 (stereo not given) | inactive | inactive | inactive | inactive | inactive | inactive | inactive | inactive | inactive | inactive | inactive | inactive | inactive | inactive | inactive | inactive | –
0.0013 | 0.027 | CC(=O)C1=C(C)N=C(SCCC(=O)O)NC1c1ccccc1 (stereo not given) | Active | inactive | inactive | inactive | Active | Active | Active | Active | Active | Active | Active | Active | Active | Active | Active | Active | Ratio IC50 [18]: 40; Activity (Toxoplasma gondii [19]): Active; Activity (Toxoplasma gondii [20]): Active; Activity (Toxoplasma gondii [21]): Active; Activity (Toxoplasma gondii [22]): Active
2.9 | 2.1 | CCOC(=O)C1=C(C)NC(=S)NC1/C=C\c1ccccc1 (stereo not given) | inactive | inactive | inactive | inactive | inactive | inactive | inactive | inactive | inactive | inactive | inactive | inactive | inactive | inactive | inactive | inactive | –
0.83 | 3.2 | CCOC(=O)CSC1=NC(c2ccccc2)C(C(=O)OCC)=C(C)N1 (stereo not given) | inactive | inactive | inactive | inactive | inactive | inactive | inactive | inactive | inactive | inactive | inactive | inactive | inactive | inactive | inactive | inactive | –
